Converted amounts (≈) assume the structure as drawn. Read-outs that look alike come from different tables or passages of the source. Where a SMILES comes first, the peptide text is derived from it. Where no end group is shown, it is not given here. [ ]: non-standard residue; d: D form. The star is where a group is joined. Guan = guanidino group added at N-terminus (guanidation), N=C(N)*; hArg = N=C(N)NCCCC[C@H](N)C(=O)O; X1 = CN(C)C(=NCC(=O)*)N(C)C; Orn = NCCC[C@H](N)C(=O)O; OPr = CCCO*
Columns and labels:
[1] = test system: S. enterica subsp. Enterica serovar. typhi G10215 ATCC 700408; format: cell-based, Salmonella enterica
Method: (§1) The minimal inhibition concentrations (MIC) of the apidaecin-derived peptides and peptide-derivatives were determined by a growth inhibition assay using a serial peptide dilution in sterilized round-bottom 96-well plates (polystyrene, U-bottom, Greiner Bio-One GmbH) with a final volume of 100 μL per well. The bacteria, e.g., E. coli BL21 A1, were grown in nutrient broth (NB, Carl Roth GmbH+Co. KG, Karlsruhe, Germany) at 37° C. over night. To each well of the 96-well plate, 50 μL of the overnight culture adjusted to 5×10^6 CFU/mL in 1% TSB were added. Lyophilized peptides and peptidomimetics were dissolved in 1% TSB (tryptic soy broth) or water to give a final concentration of 250 μg/mL. Fifty μL of the peptide or peptidomimetics solution were added to the first well of a row on the plate and mixed. Fifty μL of the first well containing the peptide solution were transferred to the second well, mixed and again 50 μL transferred to the next well and so on. Thereby, a two-fold dilution series was obtained starting at 250 μg/mL in the first well down to 120 ng/mL in the 12th well of a row giving a final peptide or peptidomimetics concentration from 125 μg/mL (well 1) to 60 ng/mL (well 12). Plates were incubated at 37° C. for 20 hrs. The absorbance was measured at 595 nm using a TECAN micro plate spectrophotometer (Tecan, Germany). All peptides and peptidomimetics were measured in triplicates. Sterilized water was used as a negative control.
(§2) The following multidrug resistant bacteria strains were tested: • Eschericha coli 45849 and D31, • Klebsiella pneumoniae 123132 and K6, • Salmonella typhi S5 and Salmonella enterica subsp. enterica serovar Typhimurium (ATCC 700408), • Rhizobium radiobacter (ATCC 15955 deposited as Agrobacterium tumefaciens).

E. coli D31 = format: cell-based, Escherichia coli
Method: as §1, §2

[2] = test system: K. Pneumonia K6, ATCC 700603; assay: Growth inhibition assay (MIC); format: cell-based, Klebsiella pneumoniae; conditions: multidrug resistant strain; 1% TSB, 37° C., 20 hrs
Method: as §1, §2

S. typhi S5 = format: cell-based, Salmonella typhi
Method: as §1, §2

E. coli 1103 = format: cell-based, Escherichia coli
Method: as §1
(§3) The bacteria strains were tested: • Eschericha coli 1103, 10233, BL 21 AI, DC 2, • Klebsiella pneumoniae 681, • Micrococcus luteus ATCC 10240, • Mycobacterium vaccae • Bactillus subtillis 347.

M. luteus ATCC 10240 = format: cell-based, Micrococcus luteus
Method: as §1, §3

K. pneumonia 681 = format: cell-based, Klebsiella pneumoniae
Method: as §1, §3

E. coli BL 21 AI = assay: Growth inhibition assay (MIC); format: cell-based, Escherichia coli; conditions: 1% TSB, 37° C., 20 hrs
Method: as §1, §3

B. subtilis 347 = format: cell-based, Bactillus subtillis
Method: as §1, §3

E. coli 45849 = assay: Growth inhibition assay (MIC); format: cell-based, Escherichia coli; conditions: multidrug resistant strain; 1% TSB, 37° C., 20 hrs
Method: as §1, §2

K. Pneumonia 123132 = assay: Growth inhibition assay (MIC); format: cell-based, Klebsiella pneumoniae; conditions: multidrug resistant strain; 1% TSB, 37° C., 20 hrs
Method: as §1, §2

[3] = multidrug resistant strain, 1% TSB, 37° C., 20 hrs

GNNRPVYIPQPRPPHPL-NH2 [compound 43]
MIC S. enterica subsp. Enterica serovar. typhi G10215 ATCC 700408 ([1]; ATCC 700408, 20 h): >64 µg/mL | MIC E. coli D31 (E. coli D31; D31, 20 h): >128 µg/mL | MIC K. Pneumonia K6, ATCC 700603 [2]: >64 µg/mL

CC[C@H](C)[C@H](NC(=O)[C@H](Cc1ccc(O)cc1)NC(=O)[C@@H](NC(=O)[C@@H]1CCCN1C(=O)[C@H](CCCNC(=N)N)NC(=O)[C@H](CC(N)=O)NC(=O)[C@H](CC(N)=O)NC(=O)[C@H](CCCN)NC(C)=O)C(C)C)C(=O)N1CCC[C@H]1C(=O)N[C@@H](CCC(N)=O)C(=O)N1CCC[C@H]1C(=O)N[C@@H](CCCNC(=N)N)C(=O)N1CCC[C@H]1C(=O)N1CCC[C@H]1C(=O)N[C@@H](Cc1c[nH]cn1)C(=O)N1CCC[C@H]1C(=O)N[C@@H](CCCNC(=N)N)C(=O)N[C@@H](CC(C)C)C(=O)OC [compound 50] (Ac-[Orn]NNRPVYIPQPRPPHPRL-OMe)
MIC S. enterica subsp. Enterica serovar. typhi G10215 ATCC 700408 ([1]; ATCC 700408, 20 h): 32 µg/mL (≈ 14.4 µM) | MIC E. coli D31 (E. coli D31; D31, 20 h): >128 µg/mL | MIC K. Pneumonia K6, ATCC 700603 [2]: >128 µg/mL

CC[C@H](C)[C@H](NC(=O)[C@H](Cc1ccc(O)cc1)NC(=O)[C@@H](NC(=O)[C@@H]1CCCN1C(=O)[C@H](CCCNC(=N)N)NC(=O)[C@H](CC(N)=O)NC(=O)[C@H](CC(N)=O)NC(=O)CN=C(N(C)C)N(C)C)C(C)C)C(=O)N1CCC[C@H]1C(=O)N[C@@H](CCC(N)=O)C(=O)N1CCC[C@H]1C(=O)N[C@@H](CCCNC(=N)N)C(=O)N1CCC[C@H]1C(=O)N1CCC[C@H]1C(=O)N[C@@H](Cc1c[nH]cn1)C(=O)N1CCC[C@H]1C(=O)N[C@@H](CCCCNC(=N)N)C(=O)N[C@@H](CC(C)C)C(N)=O [compound 133] (X1-NNRPVYIPQPRPPHP[hArg]L-NH2; N-terminus and C-terminus assumed)
MIC S. typhi S5 (S. typhi S5; S5, 20 h): 16 µg/mL (≈ 7.21 µM) | MIC E. coli 1103 (E. coli 1103; 1103, 20 h): 16 µg/mL (≈ 7.21 µM) | MIC M. luteus ATCC 10240 (M. luteus ATCC 10240; ATCC 10240, 20 h): 32 µg/mL (≈ 14.4 µM) | MIC K. pneumonia 681 (K. pneumonia 681; 20 h): 8 µg/mL (≈ 3.6 µM) | MIC S. enterica subsp. Enterica serovar. typhi G10215 ATCC 700408 ([1]; ATCC 700408, 20 h): 2 µg/mL (≈ 0.901 µM) | MIC E. coli D31 (E. coli D31; D31, 20 h): 16 µg/mL (≈ 7.21 µM)

86 ([Orn]NNRPVYIPRPRPPHPRPIRV-NH2) [compound 86]
MIC M. luteus ATCC 10240 (M. luteus ATCC 10240; 1% TSB, 37° C., 20 hrs): 0.98 µg/mL | MIC E. coli BL 21 AI (E. coli BL 21 AI): 3.91 µg/mL | MIC B. subtilis 347 (B. subtilis 347; 1% TSB, 37° C., 20 hrs): 62.5 µg/mL

159 (GNNRPVYIPRPRPPHPRL) [compound 159]
MIC S. typhi S5 (S. typhi S5; [3]): 0.25 µg/mL | MIC E. coli 45849 (E. coli 45849): 1 µg/mL | MIC S. enterica subsp. Enterica serovar. typhi G10215 ATCC 700408 [1, 3]: 0.25 µg/mL | MIC E. coli D31 (E. coli D31; [3]): 1 µg/mL | MIC K. Pneumonia 123132 (K. Pneumonia 123132): 4 µg/mL | MIC K. Pneumonia K6, ATCC 700603 [2]: 4 µg/mL

147 (Guan-[Orn]NNRPVYIPRPRPPHPRL-OPr) [compound 147]
MIC E. coli 1103 (E. coli 1103; 1% TSB, 37° C., 20 hrs): 16 µg/mL | MIC M. luteus ATCC 10240 (M. luteus ATCC 10240; 1% TSB, 37° C., 20 hrs): 16 µg/mL | MIC E. coli BL 21 AI (E. coli BL 21 AI): 4 µg/mL | MIC K. pneumonia 681 (K. pneumonia 681; 1% TSB, 37° C., 20 hrs): 8 µg/mL | MIC B. subtilis 347 (B. subtilis 347; 1% TSB, 37° C., 20 hrs): 64 µg/mL

CC[C@H](C)[C@H](NC(=O)[C@H](Cc1ccc(O)cc1)NC(=O)[C@@H](NC(=O)[C@@H]1CCCN1C(=O)[C@H](CCCNC(=N)N)NC(=O)[C@H](CC(N)=O)NC(=O)[C@H](CC(N)=O)NC(=O)CNC(C)=O)C(C)C)C(=O)N1CCC[C@H]1C(=O)N[C@@H](CCC(N)=O)C(=O)N1CCC[C@H]1C(=O)N[C@@H](CCCNC(=N)N)C(=O)N1CCC[C@H]1C(=O)N1CCC[C@H]1C(=O)N[C@@H](Cc1c[nH]cn1)C(=O)N1CCC[C@H]1C(=O)N[C@@H](CCCCNC(=N)N)C(=O)N[C@@H](CC(C)C)C(N)=O [compound 132] (Ac-GNNRPVYIPQPRPPHP[hArg]L-NH2)
MIC E. coli 1103 (E. coli 1103; 1103, 20 h): 64 µg/mL (≈ 29.6 µM) | MIC M. luteus ATCC 10240 (M. luteus ATCC 10240; ATCC 10240, 20 h): 32 µg/mL (≈ 14.8 µM) | MIC E. coli BL 21 AI (E. coli BL 21 AI): 32 µg/mL (≈ 14.8 µM) | MIC K. pneumonia 681 (K. pneumonia 681; 20 h): 32 µg/mL (≈ 14.8 µM) | MIC B. subtilis 347 (B. subtilis 347; 347, 20 h): 128 µg/mL (≈ 59.2 µM)

— US20150315241A1, “Antibiotic Peptides” (priority 2007, published 2015)
